# Assay results reported in patent US11191811B2, “Osteocalcin as a treatment for frailty associated with aging” (THE TRUSTEES OF COLUMBIA UNIVERSITY IN THE CITY OF NEW YORK, priority 2014, dated 2021).
# Entries after “also recorded” stand apart in the source; their conditions may differ.
# Columns and labels:
# [1] = system: WT mice; assay: Endurance exercise on treadmill until exhaustion; type: in vivo, mouse; details: for muscle function / exercise capacity of young and old WT mice: 3 to 15 month-old WT mice
# Method: First, whether a single intraperitoneal injection of uncarboxylated mouse osteocalcin (osteocalcin) (100 ng/g of body weight) immediately before exercise would improve the exercise capacity of 3 month-old WT mice was tested.
# To determine if osteocalcin has the same ability in older mice, 12 and 15 month-old mice that have low circulating osteocalcin levels were injected prior to running with 500 ng/g of body weight of osteocalcin in order to raise their circulating levels substantially. […] This was due to an increase in the phosphorylation of Akt, AMPK and HSL, as well as in glucose uptake, that occurred to a greater extent in oxidative muscles that express Gprc6a at the highest level, than in glycolytic muscles (FIG. 31C-F). Whether chronic delivery of osteocalcin through mini-pumps (90 ng/hour) for 28 days would increase muscle function in 9 month old mice that have the lowest circulating osteocalcin levels was also tested. […] This improved ability to perform exercise was caused in part by an increase in the expression in muscle of the fatty acid transporter Fatp1 and an activation of the Akt pathway (FIG. 31H-).
# For exercise studies, all mice were trained before the tests to run on a treadmill (Harvard apparatus) for three days (10 minutes/day). The day of the test, mice were acclimated to the treadmill for 5 minutes followed by 10 minutes running at a constant speed of 17 cm/s, then a gradual increase in the speed up to 30 cm/s. Next, mice were run until exhaustion as defined by the number of times a mouse fell off to the electric grid during one minute (>15). Measurements of muscle strength were carried out using a grip strength meter (Columbus instruments). Values are expressed as the average of five single measurements, taken one minute apart from each other. For all biochemical and metabolic analyses performed, blood/tissues were collected and processed either at rest or at the end of a 40 min run (30 cm/s).
# [2] = Osteocalcin in blood of ICV-infused Osteocalcin−/− mice; type: in vivo, mouse; details: ICV infusion 10 ng/hour
# Method: For osteocalcin delivery to pregnant mice, IP injections (240 ng/day) were performed as soon as a plug was present daily until delivery (E0.5-E18.5). For osteocalcin or leptin infusion in adult Osteocalcin^−/− or ob/ob mice, pumps (Alzet micro-osmotic pump, Model 1002) delivering osteocalcin (300 ng/hr), leptin (50 ng/hr), or vehicle were surgically installed subcutaneously in the backs of 3-month old mice. For the postnatal rescue of cognitive functions in Osteocalcin^−/− mice, osteocalcin (10 ng/hour) or vehicle were delivered intrasubventricularly (icv) as previously described (Ducy et al., 2000, Cell 100:197-207). Leptin and osteocalcin content in sera and tissues were determined by ELISA.
# The pharmacological relevance of this ability of osteocalcin to signal in neurons was established by delivering uncarboxylated osteocalcin through intracerebro-ventricular (ICV) infusions (10 ng/hour) in WT and Osteocalcin^−/− mice. The localization of the cannula was verified by administering methylene blue through these pumps. […] This week-long treatment with uncarboxylated osteocalcin corrected the anxiety and depression features noted in Osteocalcin^−/− mice (FIG. 12A-E). Collectively, the results described herein indicate that osteocalcin alleviates anxiety and depression in the mouse by acting directly in the brain.
# [3] = system: aged WT mice; assay: Novel Object Recognition test in aged WT mice with ICV infusion; type: in vivo, mouse
# Method: FIG. 15. Osteocalcin improves hippocampal function in aged wild-type (WT) mice. Constant and novel object investigation in the Novel Object Recognition test in 17 month old mice treated for 1 month with vehicle or 10 ng/hr recombinant uncarboxylated osteocalcin.
# ICV pumps delivering (10 ng/hr) recombinant uncarboxylated full-length mouse osteocalcin were implanted in 16 month old WT mice. After an infusion period of one month, the mice were subjected to a modified version of the Novel Object Recognition test, to assay memory and hippocampal function. Briefly, mice were given five 5 minute exposures, with 3 minute resting intervals between exposures, to a novel arena containing two objects. During exposures 1-4, mice were habituated to these two objects, which elicited equal amounts of exploration. In the fifth exposure, one of the objects was replaced with a novel object.
# [4] = system: Leydig cells; assay: Testosterone production by testis explants or primary Leydig cells; type: cell-based, mouse; details: recombinant uncarboxylated osteocalcin 0-100 ng/ml of culture medium (FIG. 10)
# Method: FIG. 10. Osteocalcin favors male fertility by increasing testosterone production by Leydig cells. (A-B) Testosterone production by testis explants (A) or primary Leydig cells (B) cultured in the presence of supernatants of wild type (WT) or Osteocalcin^−/− osteoblast cultures. (C-D) Testosterone production by testis explants (C) or primary Leydig cells (D) following stimulation with increasing doses of recombinant uncarboxylated osteocalcin (0, 0.3, 1, 3, 10, 100 ng/ml of culture medium). (E) Circulating testosterone levels in WT mice 1 hour, 4 hours, and 8 hours after vehicle or recombinant uncarboxylated osteocalcin (3 ng/g of body weight) injection. (F-G) Comparison between the average litter size (F) and frequency (G) generated by WT, Osteocalcin^−/−, or Esp^−/− male littermate mice crossed with WT females (breeding was tested from 6 to 16 weeks of age). (H-L) Testis size (H), testis weight (I), epididymides weight (J), seminal vesicles weight (K), and sperm count (L) in Osteocalcin^−/− and Esp^−/− compared to WT littermate mice. (M) Circulating steroid sex hormone levels in Osteocalcin^−/− and Esp^−/− compared to WT littermate mice. The analyses were performed on breeder and non-breeder mice. Error bars represent SEM. Student's t test (*) P<0.05, (**) P<0.001.
substance,measurement,setting,value
"uncarboxylated osteocalcin: Recombinant uncarboxylated mouse osteocalcin, bacterially produced, purified on glutathione beads and cleaved from the GST subunit by thrombin (YLGASVPSPDPLEPTREQCELNPACDELSDQYGLKTAYKRIYGITI)",increase of time and distance run on the treadmill before exhaustion,"[1]; 3 month-old WT mice, single intraperitoneal injection 100 ng/g of body weight immediately before exercise",over 20%
same,muscle function / exercise capacity of young and old WT mice,[1]; listed as Osteocalcin,increases
same,muscle function / exercise capacity of young and old WT mice,[1]; listed as osteocalcin,can improve
same,time and distance run / exercise capacity of older mice,"[1]; 12 and 15 month-old mice, 500 ng/g of body weight injected prior to running",the exercise capacity of 3 month-old mice; also recorded: the same time and distance as 3 month-old untreated mice; also recorded: run like young mice
same,time and distance run on the treadmill before exhaustion,"[1]; mini-pumps 90 ng/hour for 28 days, 9 month old mice",significant increase
same,increase of distance run,"[1]; wild-type mice, simple injection while they run on a treadmill",20%
same,exercise capacity of young mice,"[1]; young (3 month-old) WT mice, exogenous osteocalcin",increases; also recorded: sufficient to increase
same,leakage of the centrally delivered hormone into the general circulation,[2],no leakage
same,time exploring the novel object,"[3]; 10 ng/hr ICV for one month, 16 month old WT mice, versus vehicle alone",less time
same,discrimination between the novel and constant objects,"[3]; 10 ng/hr ICV for one month, aged mice",able to discriminate
same,hippocampal function,[3]; aged WT mice (FIG. 15 title),improves
same,testosterone production by Leydig cells,[4],increasing
